# Where “and” joins values, the source holds several entries; their conditions need not be identical. Identical values can stand only once.
# How the values were obtained:
# [1] = system: sensory neurons; type: cell-based, rat
# [2] = system: co-cultured sensory neurons and keratinocytes; type: cell-based, rat DRG neurons, human keratinocytes
# [3] = molecular target: T1, PAR-2 (Homo sapiens, UniProt P55085); settings: cited from earlier work
# [4] = system: co-cultured DRG neurons and keratinocytes; type: cell-based, rat DRG neurons, human keratinocytes
# [5] = not told; cited from earlier work
# [6] = system: DRG neurons; type: cell-based, rat
# [7] = system: primary human epidermal keratinocytes; type: cell-based
# [8] = system: PAR-2; type: cell-based, rat
# [9] = molecular target: T1, PAR-2; settings: cited from earlier work; remark: listed apart in the source
# [10] = in vivo, cited from earlier work
# T1 sequence (P55085 26-397): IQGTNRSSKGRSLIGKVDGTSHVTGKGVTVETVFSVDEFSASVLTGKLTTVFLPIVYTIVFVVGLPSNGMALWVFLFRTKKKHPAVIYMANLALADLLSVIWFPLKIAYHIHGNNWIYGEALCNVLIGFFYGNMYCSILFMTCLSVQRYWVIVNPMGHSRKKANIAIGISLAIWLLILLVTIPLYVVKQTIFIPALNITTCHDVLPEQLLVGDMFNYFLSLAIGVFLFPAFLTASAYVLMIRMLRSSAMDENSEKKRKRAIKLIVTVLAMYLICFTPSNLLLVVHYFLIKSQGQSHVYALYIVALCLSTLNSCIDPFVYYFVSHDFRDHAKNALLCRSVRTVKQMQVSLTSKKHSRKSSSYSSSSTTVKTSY
molecule,measurement,setting,value
Cc1c(C(=O)Nc2cccc(C(F)(F)F)c2)cc(-c2ccccc2)n1CCCN1CCOCC1 [HC-067047],"normalized amplitude values in each phase (FIGS. 9B, 9D, 9F)",[1],No significant modification
same,normalized percentage of cells responding to PbTx-1 with the first peak,[1],59.4±11.5%
same,normalized percentage of cells responding to PbTx-1 with the plateau,[1],35.0±16.1%
same,normalized percentage of cells responding to PbTx-1 with the second peak,[1],35.6±11.5%
same,PbTx-1-induced SP release with pre-treatment (normalized levels),[2],58.7±14.5% and 41.3±14.5%
C1CCC[C@H]2CCCN3CC[C@@H](CCCCCC[C@@H]4CCCN5CC[C@@H](CC1)O[C@@H]45)O[C@@H]23 [Xestospongin C],"normalized amplitude values in each phase (FIGS. 9B, 9D, 9F)",[1],No significant modification
same,normalized percentage of cells responding to PbTx-1 with the first peak,[1],did not decrease
same,normalized percentage of cells responding to PbTx-1 with the second peak,[1],62.5±14.7%
same,PbTx-1-induced SP release with pre-treatment (normalized levels),[2],35.5±9.7%
CC[C@H](C)[C@H](NC(=O)[C@H](CC1CCCCC1)NC(=O)c1ccno1)C(=O)N1CCC2(CCc3ccccc32)CC1 [GB88],PAR-2 calcium signaling / calcium mobilization,[3],inhibit
"CC(C)C[C@H](NC(=O)[C@H](Cc1ccccc1)NC(=O)OCc1ccccc1)C(=O)C=O [Z-FL-COCHO, Cbz-Phe-Leu-COCHO]","P-CTX-2-induced SP release, reduced to (% of P-CTX-2 alone)",[4],13.1±6.1%
same,normalized percentage of cells responding to PbTx-1 with the first peak,[1],48.2±11.1%
same,normalized percentage of cells responding to PbTx-1 with the plateau,[1],41.0±13.8%
same,normalized percentage of cells responding to PbTx-1 with the second peak,[1],45.2±11.1%
same,"PbTx-1-induced SP release, decreased to (% of PbTx-1 alone)",[2],80.4±4.1%
same,cell permeability,[5],poorly cell-permeant
"NC1=N[C@H](O)[C@H]2[C@H]3O[C@]4(O)O[C@@H]([C@@H](O)[C@@]2(N1)[C@@H]4O)[C@]3(O)CO [TTX, Tetrodotoxin]",normalized amplitude of the first peak in responding cells (% of P-CTX-2 alone),[6],53.6±8.0% and 47.8±7.2%
same,normalized amplitude values of the plateau in responding cells (% of P-CTX-2 alone),[6],53.2±1.3% and 84.8±6.6%
same,normalized percentage of cells responding with the first peak (% of P-CTX-2 alone),[6],34.9±13.4% and 41.6±12.5%
same,normalized second peak amplitude in responding cells (% of P-CTX-2 alone),[6],33.7±3.5% and 61.9±16.1%
same,average ratio of the P-CTX-2-mediated calcium signal (ΔF/F0),[7],0.34±0.11
same,decrease of the average ratio of the P-CTX-2-mediated calcium signal,[7],approximately 70%
same,"P-CTX-2-induced SP release, reduced to (% of P-CTX-2 alone)",[4],29.3±7.3% and 53.1±11.3%
same,normalized amplitude of the second peak,[1],3.4±3.4%
same,normalized percentage of cells responding to PbTx-1 with the first peak,[1],65.20±14.50% and 34.40±21.24%
same,membrane expression of PAR-2,[8],95.3±4.9% and 92.7±1.3%
COc1ccccc1OCCNCC(O)COc1cccc2[nH]c3ccccc3c12 (centres unmarked) [Carvedilol],PAR-2 calcium signaling / calcium mobilization,[3],inhibit
same,ERK1/2 phosphorylation,[9],inhibit
2-aminothiazol-4-yl-LIGRL-NH2 ({2‑aminothiazol‑4‑yl}-LIGRL-NH2),PAR-2 calcium signaling / calcium mobilization,[3],inhibit
same,ERK1/2 phosphorylation,[9],inhibit
CCc1nn(CCCN2CCN(c3cccc(Cl)c3)CC2)c(=O)n1CCOc1ccccc1 [Nefazodone],PAR-2 calcium signaling / calcium mobilization,[3],inhibit
same,ERK1/2 phosphorylation,[9],inhibit
CCC(C)[C@H](NC(=O)[C@H](CC1CCCCC1)NC(=O)c1ccno1)C(=O)N1CCC2(CCc3ccccc32)CC1 (some centres unmarked) [GB83],normalized amplitude of the first peak in responding cells (% of P-CTX-2 alone),[6],31.2±4.2%
same,normalized amplitude values of the plateau in responding cells (% of P-CTX-2 alone),[6],50.1±8.7%
same,normalized percentage of cells responding with a second peak (% of P-CTX-2 alone),[6],16.7±4.1%
same,normalized percentage of cells responding with the first peak (% of P-CTX-2 alone),[6],34.5±10.5%
same,normalized percentage of neurons responding with a plateau (compared to P-CTX-2 alone),[6],7.9±3.3%
same,normalized second peak amplitude in responding cells (% of P-CTX-2 alone),[6],27.2±5.0%
same,"P-CTX-2-induced SP release, reduced to (% of P-CTX-2 alone)",[4],15.0±7.9%
same,normalized percentage of cells responding to PbTx-1 with the first peak,[1],75.7±7.28%
same,normalized percentage of cells responding to PbTx-1 with the plateau,[1],37.7±7.7%
same,normalized percentage of cells responding to PbTx-1 with the second peak,[1],48.9±7.38%
same,PbTx-1-induced SP release with pre-treatment (normalized levels),[2],47±8.2%
same,"PbTx-1-induced SP release, decreased to (% of PbTx-1 alone)",[2],40.9±7.4%
same,inhibitory effect on PbTx-1-induced SP release,[2],45.3±6.9%
same,PAR-2 calcium signaling / calcium mobilization,[3],inhibit
OC[C@@H](O)[C@@H](O)[C@H](O)[C@H](O)CO [mannitol],effectiveness in severe cases of poisoning supported early,[10]; iv,effectiveness
same,effectiveness in non-severe forms of intoxication,[10],not effective
"Cl.Cn1cc(C2=C(c3c4n(c5ccccc35)CCC(CN)C4)C(=O)NC2=O)c2ccccc21 (centres unmarked) [BimX, Bisindolylmaleimide X hydrochloride]","normalized amplitude values in each phase (FIGS. 9B, 9D, 9F)",[1],No significant modification
same,normalized percentage of cells responding to PbTx-1 with the first peak,[1],did not decrease
same,normalized percentage of cells responding to PbTx-1 with the second peak,[1],67.7±7.5%
same,PbTx-1-induced SP release with pre-treatment (normalized levels),[2],37.4±5.9%
CCOC(=O)N1CCC(=C2c3ccc(Cl)cc3CCc3cccnc32)CC1 [Loratadine],PAR-2 calcium signaling / calcium mobilization,[3],inhibit
same,ERK1/2 phosphorylation,[9],inhibit
COc1ccc(CCN2CCC(Nc3nc4ccccc4n3Cc3ccc(F)cc3)CC2)cc1 [Astemizole],PAR-2 calcium signaling / calcium mobilization,[3],inhibit
same,ERK1/2 phosphorylation,[9],inhibit
